From ChEMBL document CHEMBL4251672, “Penicilindoles A-C, Cytotoxic Indole Diterpenes from the Mangrove-Derived Fungus Eupenicillium sp. HJ002” (J Nat Prod, 2018)
pIC50: −log10 of the molar value. Counter-ions that a name gives are not always drawn. The source made the active and inactive calls. The rule behind the calls is not given here.

Tests used:
A549 = assay: Cytotoxicity against human A549 cells assessed as decrease in cell viability by MTT assay; type: functional, cell-based
HeLa = assay: Cytotoxicity against human HeLa cells assessed as decrease in cell viability by MTT assay; type: functional, cell-based
HepG2 = assay: Cytotoxicity against human HepG2 cells assessed as decrease in cell viability by MTT assay; type: functional, cell-based
Escherichia coli = assay: Antibacterial activity against Escherichia coli ATCC 25922 at 20 uM; type: functional, organism-based
Staphylococcus aureus [1] = assay: Antibacterial activity against Staphylococcus aureus ATCC 25923 at 20 uM; type: functional, organism-based
Staphylococcus aureus [2] = assay: Antibacterial activity against methicillin-resistant Staphylococcus aureus ATCC 33591 at 20 uM; type: functional, organism-based
Bacillus cereus = assay: Antibacterial activity against Bacillus cereus ATCC 11778 at 20 uM; type: functional, organism-based
Vibrio parahaemolyticus = assay: Antibacterial activity against Vibrio parahaemolyticus ATCC 17802 at 20 uM; type: functional, organism-based
Vibrio alginolyticus = assay: Antibacterial activity against Vibrio alginolyticus ATCC 17749 at 20 uM; type: functional, organism-based

| Structure (SMILES) | pIC50 (A549) | pIC50 (HeLa) | pIC50 (HepG2) | Activity (Escherichia coli) | Activity (Staphylococcus aureus [1]) | Activity (Staphylococcus aureus [2]) | Activity (Bacillus cereus) | Activity (Vibrio parahaemolyticus) | Activity (Vibrio alginolyticus) |
| --- | --- | --- | --- | --- | --- | --- | --- | --- | --- |
| CC(C)=CCC[C@@]12[C@@H](O)CC[C@@H](C)[C@]1(C)CC[C@@](C)(O)[C@H]2Cc1c[nH]c2ccccc12 | 5.26 | 4.63 | 5.82 | inactive | inactive | inactive | inactive | inactive | inactive |
| CC(C)=CCC[C@@]12C(=O)CC[C@@H](C)[C@]1(C)CC[C@@](C)(O)[C@H]2Cc1c[nH]c2ccccc12 | 4.73 | 4.70 | 4.33 | inactive | inactive | inactive | inactive | inactive | inactive |
| O=c1[nH]cc(F)c(=O)[nH]1 [FLUOROURACIL] | 4.43 | 4.55 | – | – | – | – | – | – | – |
| COc1cccc2c1C(=O)c1c(O)c3c(c(O)c1C2=O)C[C@@](O)(C(=O)CO)C[C@@H]3O[C@H]1C[C@H](N)[C@H](O)[C@H](C)O1 [DOXORUBICIN HYDROCHLORIDE] | – | 7.00 | – | – | – | – | – | – | – |
